Assay results taken from ChEMBL document CHEMBL3132769, “Fragment growing to retain or alter the selectivity of anchored kinase hinge-binding fragments” (Medchemcomm, 2014).

Columns and labels:
[1] = species: Homo sapiens; experiment: Inhibition of human P70S6K catalytic domain expressed in baculovirus assessed as substrate phosphorylation using fluorescence-labelled peptides as substrate at 420 uM after 90 mins by microfluidic peptide phosphorylation assay
[2] = system: Fibroblast growth factor receptor 2 (Homo sapiens), P21802 [N549H]; experiment: Inhibition of human FGFR2 N549H mutant catalytic domain expressed in baculovirus assessed as substrate phosphorylation using fluorescence-labelled peptides as substrate at 420 uM after 90 mins by microfluidic peptide phosphorylation assay
[3] = target: Tyrosine-protein kinase Fer (Homo sapiens) (UniProt P16591); experiment: Inhibition of human FER catalytic domain expressed in baculovirus assessed as substrate phosphorylation using fluorescence-labelled peptides as substrate at 0.06 uM after 90 mins by microfluidic peptide phosphorylation assay
[4] = target: Casein kinase I isoform alpha (Homo sapiens) (UniProt P48729); experiment: Inhibition of human full length CSNK1A1 expressed in baculovirus assessed as substrate phosphorylation using fluorescence-labelled peptides as substrate at 0.06 uM after 90 mins by microfluidic peptide phosphorylation assay
[5] = system: Tyrosine-protein kinase ABL1 (Homo sapiens), P00519 [H396P]; experiment: Inhibition of human truncated ABL H396P mutant expressed in baculovirus assessed as substrate phosphorylation using fluorescence-labelled peptides as substrate at 0.06 uM after 90 mins by microfluidic peptide phosphorylation assay
[6] = target: T1, Inhibitor of nuclear factor kappa-B kinase subunit beta (Homo sapiens) (UniProt O14920); experiment: Inhibition of human full length IKK beta expressed in baculovirus assessed as substrate phosphorylation using fluorescence-labelled peptides as substrate at 70 uM after 90 mins by microfluidic peptide phosphorylation assay
T1 sequence (whole entry): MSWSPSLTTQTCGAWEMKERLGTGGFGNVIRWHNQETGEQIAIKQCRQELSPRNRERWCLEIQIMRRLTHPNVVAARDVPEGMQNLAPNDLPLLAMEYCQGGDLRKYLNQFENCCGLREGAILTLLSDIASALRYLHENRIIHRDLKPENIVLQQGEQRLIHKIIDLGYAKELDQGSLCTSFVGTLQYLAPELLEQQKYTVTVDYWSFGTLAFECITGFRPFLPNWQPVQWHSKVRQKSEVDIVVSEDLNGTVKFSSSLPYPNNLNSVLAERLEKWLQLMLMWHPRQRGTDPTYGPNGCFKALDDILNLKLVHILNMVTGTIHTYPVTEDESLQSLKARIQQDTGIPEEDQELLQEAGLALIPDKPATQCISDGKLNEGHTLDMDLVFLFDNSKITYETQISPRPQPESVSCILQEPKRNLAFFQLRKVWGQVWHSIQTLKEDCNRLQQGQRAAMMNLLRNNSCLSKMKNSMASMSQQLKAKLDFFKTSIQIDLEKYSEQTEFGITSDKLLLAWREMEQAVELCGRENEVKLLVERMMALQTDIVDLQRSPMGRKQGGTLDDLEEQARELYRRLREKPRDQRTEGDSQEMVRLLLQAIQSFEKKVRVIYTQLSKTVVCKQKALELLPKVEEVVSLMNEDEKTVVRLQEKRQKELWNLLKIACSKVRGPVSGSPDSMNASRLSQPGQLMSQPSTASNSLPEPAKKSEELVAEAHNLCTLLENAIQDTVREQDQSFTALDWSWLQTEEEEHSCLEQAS

[7] = target: T2, Protein kinase C epsilon type (Homo sapiens) (UniProt Q02156); experiment: Inhibition of human truncated PKC epsilon expressed in baculovirus assessed as substrate phosphorylation using fluorescence-labelled peptides as substrate at 70 uM after 90 mins by microfluidic peptide phosphorylation assay
T2 sequence (whole entry): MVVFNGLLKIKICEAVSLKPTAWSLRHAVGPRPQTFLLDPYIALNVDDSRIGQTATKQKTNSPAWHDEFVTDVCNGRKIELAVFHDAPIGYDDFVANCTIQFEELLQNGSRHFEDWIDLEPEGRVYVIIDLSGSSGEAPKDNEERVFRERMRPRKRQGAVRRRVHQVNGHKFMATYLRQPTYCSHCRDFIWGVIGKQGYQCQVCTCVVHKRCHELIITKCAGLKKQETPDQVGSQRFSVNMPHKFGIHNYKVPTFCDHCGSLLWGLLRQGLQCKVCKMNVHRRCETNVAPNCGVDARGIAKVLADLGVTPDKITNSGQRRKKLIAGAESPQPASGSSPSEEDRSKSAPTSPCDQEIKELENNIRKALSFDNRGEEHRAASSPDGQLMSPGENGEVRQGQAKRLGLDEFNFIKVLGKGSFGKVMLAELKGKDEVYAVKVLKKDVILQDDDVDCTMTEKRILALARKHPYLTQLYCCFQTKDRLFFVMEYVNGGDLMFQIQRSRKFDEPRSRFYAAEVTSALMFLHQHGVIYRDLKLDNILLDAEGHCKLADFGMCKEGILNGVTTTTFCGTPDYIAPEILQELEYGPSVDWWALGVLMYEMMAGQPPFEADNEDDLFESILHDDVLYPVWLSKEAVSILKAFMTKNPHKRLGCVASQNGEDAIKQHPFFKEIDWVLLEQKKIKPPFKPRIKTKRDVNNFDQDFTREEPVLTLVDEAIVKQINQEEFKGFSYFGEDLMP

[8] = target: T3, Serine/threonine-protein kinase 3 (Homo sapiens) (UniProt Q13188); experiment: Inhibition of human full length MST2 expressed in baculovirus assessed as substrate phosphorylation using fluorescence-labelled peptides as substrate at 1000 uM after 90 mins by microfluidic peptide phosphorylation assay
T3 sequence (whole entry): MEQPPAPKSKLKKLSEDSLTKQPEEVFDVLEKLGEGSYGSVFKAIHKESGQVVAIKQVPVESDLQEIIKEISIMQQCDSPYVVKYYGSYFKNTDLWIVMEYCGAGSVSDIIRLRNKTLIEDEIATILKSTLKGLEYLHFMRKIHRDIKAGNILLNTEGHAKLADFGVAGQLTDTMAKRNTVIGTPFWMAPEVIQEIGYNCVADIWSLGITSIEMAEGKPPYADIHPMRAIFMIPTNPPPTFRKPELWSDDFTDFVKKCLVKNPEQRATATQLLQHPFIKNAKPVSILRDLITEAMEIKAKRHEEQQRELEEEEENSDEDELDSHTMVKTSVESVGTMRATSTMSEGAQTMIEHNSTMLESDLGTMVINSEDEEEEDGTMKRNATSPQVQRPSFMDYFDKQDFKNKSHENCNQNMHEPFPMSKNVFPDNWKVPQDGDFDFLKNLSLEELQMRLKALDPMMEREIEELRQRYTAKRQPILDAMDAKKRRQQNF

Fibroblast growth factor receptor 2 (Homo sapiens), P21802 [N549H], sequence (P21802 whole entry N549H, the tested form may be a part): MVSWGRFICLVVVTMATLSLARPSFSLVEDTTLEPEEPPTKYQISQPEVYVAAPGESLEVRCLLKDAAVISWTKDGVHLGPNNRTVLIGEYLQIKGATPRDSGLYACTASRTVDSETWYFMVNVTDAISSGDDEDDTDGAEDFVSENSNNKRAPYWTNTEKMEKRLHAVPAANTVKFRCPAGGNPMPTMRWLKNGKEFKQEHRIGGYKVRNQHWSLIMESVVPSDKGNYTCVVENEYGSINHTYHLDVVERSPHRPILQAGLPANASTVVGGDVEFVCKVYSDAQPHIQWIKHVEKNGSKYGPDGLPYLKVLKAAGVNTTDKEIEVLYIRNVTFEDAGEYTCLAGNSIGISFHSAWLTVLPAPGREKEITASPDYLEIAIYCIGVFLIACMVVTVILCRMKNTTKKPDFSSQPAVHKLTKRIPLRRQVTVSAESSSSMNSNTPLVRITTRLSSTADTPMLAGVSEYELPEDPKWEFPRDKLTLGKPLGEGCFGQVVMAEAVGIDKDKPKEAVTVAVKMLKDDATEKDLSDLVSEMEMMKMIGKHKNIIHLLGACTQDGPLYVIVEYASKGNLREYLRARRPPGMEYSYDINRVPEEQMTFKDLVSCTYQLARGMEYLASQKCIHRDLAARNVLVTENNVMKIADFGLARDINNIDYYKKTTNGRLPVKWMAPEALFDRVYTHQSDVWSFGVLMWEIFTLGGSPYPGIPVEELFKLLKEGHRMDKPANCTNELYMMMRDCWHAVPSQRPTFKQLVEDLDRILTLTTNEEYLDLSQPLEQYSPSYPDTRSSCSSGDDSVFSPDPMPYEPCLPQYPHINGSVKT
Tyrosine-protein kinase Fer (Homo sapiens), sequence (P16591 whole entry, looked up, the tested form may be a part, canonical isoform): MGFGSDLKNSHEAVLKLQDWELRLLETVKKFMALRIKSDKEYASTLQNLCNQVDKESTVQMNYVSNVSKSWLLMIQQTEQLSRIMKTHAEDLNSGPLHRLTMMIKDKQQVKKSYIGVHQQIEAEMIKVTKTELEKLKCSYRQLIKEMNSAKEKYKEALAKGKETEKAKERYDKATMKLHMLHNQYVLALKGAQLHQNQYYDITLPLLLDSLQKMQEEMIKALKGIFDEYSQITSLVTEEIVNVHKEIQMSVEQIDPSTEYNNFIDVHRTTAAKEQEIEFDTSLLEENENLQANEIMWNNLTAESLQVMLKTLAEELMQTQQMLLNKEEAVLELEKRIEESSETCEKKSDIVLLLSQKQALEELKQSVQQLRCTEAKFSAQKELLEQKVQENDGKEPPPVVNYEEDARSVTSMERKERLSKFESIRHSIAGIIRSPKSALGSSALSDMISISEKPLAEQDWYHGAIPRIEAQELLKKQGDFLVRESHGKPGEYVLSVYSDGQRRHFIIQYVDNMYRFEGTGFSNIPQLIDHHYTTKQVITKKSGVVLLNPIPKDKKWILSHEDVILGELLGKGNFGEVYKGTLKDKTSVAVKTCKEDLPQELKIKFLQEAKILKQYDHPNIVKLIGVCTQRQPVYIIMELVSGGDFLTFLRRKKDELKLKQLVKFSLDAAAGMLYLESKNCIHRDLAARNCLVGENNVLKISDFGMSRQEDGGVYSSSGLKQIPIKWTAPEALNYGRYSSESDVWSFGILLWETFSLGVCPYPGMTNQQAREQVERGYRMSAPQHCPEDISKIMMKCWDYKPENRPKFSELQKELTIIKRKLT
Casein kinase I isoform alpha (Homo sapiens), sequence (P48729 2-337 limits assumed): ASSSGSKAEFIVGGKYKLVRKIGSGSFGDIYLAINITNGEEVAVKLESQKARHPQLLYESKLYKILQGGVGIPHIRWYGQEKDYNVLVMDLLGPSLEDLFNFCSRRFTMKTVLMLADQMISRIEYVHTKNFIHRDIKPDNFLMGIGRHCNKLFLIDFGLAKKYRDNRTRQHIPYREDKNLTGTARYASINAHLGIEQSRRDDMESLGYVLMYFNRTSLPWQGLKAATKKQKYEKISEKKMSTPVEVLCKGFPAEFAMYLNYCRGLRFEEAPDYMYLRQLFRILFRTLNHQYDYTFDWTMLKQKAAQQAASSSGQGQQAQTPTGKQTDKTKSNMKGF

Molecule c1nc(N2CCOCC2)c2nc[nH]c2n1 has an inhibition [1] of 84.5% and an inhibition [2] of 89.5%.

Work on NC1(Cc2ccc(Cl)cc2)CCN(c2ncnc3[nH]ccc23)CC1 yielded an inhibition [3] of 4%, an inhibition [4] of 1% and an inhibition [5] of 0.5%.

CNCc1ccc(-c2ncnc3[nH]cnc23)cc1 showed an inhibition [6] of 90.5% and an inhibition [7] of 44%.

c1cnc2[nH]ccc2c1 gave an inhibition [8] of 63%.
